“Also recorded” adds a separate entry of the source. Read-outs that look alike come from different tables or passages of the source.
Experiments:
Golden Syrian hamster = assay: Evaluation of antilipidemic property in hamster animal model (2-week daily oral gavage); assay type: in vivo; details: for raising HDL-C (in words): monotherapy; for LDL-C reduced by: 8-160 mg range; for reducing LDL-C by: repeat experiment, 5-20 mg dose range
Description: Evaluation of antilipidemic property in animal. Golden Syrian hamster, 8-wk old (85-100 g) (Bio®F1B, Bio Breeders, Inc., Watertown, Mass.) was the animal model chosen for this study because of its similarities with humans in lipoprotein metabolism and atherosclerosis Moreover, the hamster has plasma cholesteryl ester transfer protein (CETP) similar to humans. Dietary fat saturation affects apolipoprotein gene expression and high-density lipoprotein size distribution in golden Syrian hamsters. The animals housed four per cage were fed […] Supreme Fortified Hamster diet ([…] Products, Inc. Chilton, Wis.), with one part ratio of Heath High Energy suet (Heath Mfg., Cooperville, Mich.); water ad libitum. The animals were fed this diet for 1 week, and then given the drug treatment for a 2-week duration. Drugs were administered by daily oral gavage using 4:6 PEG/Cremaphore suspension vehicle for the water-insoluble drugs (e.g., atorvastatin, lovastatin, simvastatin, and the fibrates); the water-soluble drugs (dihydroxy-acid salts, pravastatin) were dissolved in water. Equivalent doses, based on a 70 kg person, were administered in the hamster. […] Thus, the calculated final dose for a 100-gm hamster is 0.143 mg as well ([…] X a factor of “10”), formulated in a 0.25 ml solution for oral gavage administration. […] Body weights were recorded prior to drug administration and every other day during the test duration. At termination, blood was collected from anesthetized hamsters and the serum is separated by centrifugation. Total serum cholesterol was assayed using the Hitachi Diagnostics enzymatic kit for the determination of total cholesterol, LDL cholesterol, HDL cholesterol, and triglyceride (Analysis performed by: Lipid Analysis, Inc., Springfield, Ill.).

[1] = tested on: Syrian Golden hamsters (F1B strain); assay: Lipid profile in Syrian Golden hamsters on hypercholesterolemic diet, combo drugs vs Crestor; assay type: in vivo; details: for effective doses found in this study: in combination, mg/70 kg man
Experimental: Crestor is a new synthetic statin and considered “superstatin” because of its effectiveness at low doses. In clinical studies, Crestor is now found to be the new gold standard among the statins: a 5 mg Crestor dose is equivalent to 20 mg Lipitor, 40 mg Zocor, 80 mg Mevacor or Pravachol. Thus, the drug combination of Compound I and Compound II was compared with Crestor. The animal model was Syrian Golden hamsters (F1B strain, BioBreeders, Fitchburg Mass.). The animals approximately 8-10 weeks of age were fed a non-purified chow-based hypercholesterolemic diet (HCD) containing 10% coconut oil and 0.1% cholesterol by weight for 2 weeks prior to initiation of the experimental treatments, and remain on this diet for the remainder of the study. Compounds I and II were administered by oral gavage (0.2 mL), once a day for 14 days. At day 14, blood samples were obtained after an overnight fast.

Water solubility = assay type: physicochemical
[2] = tested on: Rattus norvegicus, outbred Sprague Dawley; details: combination, rat 14 days, mg/70 kg man
Experimental: Age range at initiation of study was 8-14. […] Quarantine/acclimation was one week. Animals were randomized to groups based on weight. Number per cage was 2-3. Environmental conditions: Conventional microisolator caging. Room temperature was maintained between 19 and 23° C. Relative humidify was maintained at 55-80%. The light/dark cycle was maintained on a 12 hour cycle. Animals were exposed to the test substance daily for 14 days (2 weeks); and the doses were administered by gavage.
Gross necropsy was performed in the animals in the study. […] Collected tissues were placed in formalin overnight and then sectioned and cassetted the following day.
Blood samples were collected by cardiac puncture, 24 hours after the last treatment, as part of the necropsy protocol. Parameters examined include hematocrit (HCT), hemoglobin (Hgb), total erythrocyte count (RBC), total white cell count (WBC), differential count, and platelet estimate; calculated mean corpuscular volume (MCV), mean corpuscular hemoglobin (MCH), and mean corpuscular hemoglobin concentration (MCHC).
Also, at 16-18 hours after the last treatment, animals were placed in metabolic cages and urine was collected (just prior to necropsy). The urine samples were tested for presence of myoglobin.
Clinical Chemistry. Blood samples were collected by cardiac puncture, 24 hours after the last treatment, as part of the necropsy protocol. […]

[3] = background description; cited from earlier work
[4] = Equivalent Dose 8 mg (per 70 kg man), oral gavage 2 weeks, serum
[5] = Equivalent Dose 160 mg (per 70 kg man), oral gavage 2 weeks, serum
[6] = repeat comparison, Equivalent Dose 10.0 mg
[7] = repeat comparison, Equivalent Dose 20.0 mg
[8] = repeat comparison, Equivalent Dose 5.0 mg
[9] = compared with the Compound I and II combination

SMILES | % Decrease On: HDL-C (Golden Syrian hamster; Equivalent Dose 8 mg) [%] | % Decrease On: LDL-C (Golden Syrian hamster; Equivalent Dose 8 mg) [%] | % Decrease On: Triglyceride (Golden Syrian hamster; Equivalent Dose 8 mg) [%] | % Decrease On: Total Cholesterol (Golden Syrian hamster; [4]) [%] | % Decrease On: HDL-C (Golden Syrian hamster; Equivalent Dose 160 mg) [%] | % Decrease On: LDL-C (Golden Syrian hamster; Equivalent Dose 160 mg) [%] | % Decrease On: Triglyceride (Golden Syrian hamster; Equivalent Dose 160 mg) [%] | % Decrease On: Total Cholesterol (Golden Syrian hamster; [5]) [%] | raising HDL-C (in words) (Golden Syrian hamster) | further results
CCC(C)(C)C(=O)O[C@H]1C[C@@H](C)C=C2C=C[C@H](C)[C@H](CC[C@@H]3C[C@@H](O)CC(=O)O3)[C@H]21 [Zocor, Simvastatin] | 12.6 | 5.4 | 23.4 | 9.5 | 30.7 | 54.4 | 43.0 | 40.7 | – | –
CC[C@H](C)C(=O)O[C@H]1C[C@H](O)C=C2C=C[C@H](C)[C@H](CC[C@@H](O)C[C@@H](O)CC(=O)O)[C@H]21 [Pravachol, Pravastatin] | 20.4 | 29.9 | 18.8 | 22.4 | 17.3 | 33.3 | 25.9 | 23.0 | did not show any increase in HDL-C | –
CC(C)c1c(C(=O)Nc2ccccc2)c(-c2ccccc2)c(-c2ccc(F)cc2)n1CC[C@@H](O)C[C@@H](O)CC(=O)O [Lipitor, Atorvastatin] | 33.3 | 28.5 | 35.8 | 28.6 | 30.7 | 54.4 | 53.0 | 43.0 | not effective in raising HDL-C; also recorded: did not show any increase in HDL-C | LDL-C reduced by (Golden Syrian hamster): 28.5-54.4%; % Decrease On: HDL-C (Golden Syrian hamster; [6]): 20.7%; % Decrease On: LDL-C (Golden Syrian hamster; [6]): 17.9%; % Decrease On: Total Cholesterol (Golden Syrian hamster; [6]): 18.2%; % Decrease On: Triglyceride (Golden Syrian hamster; [6]): 5.0%; % Decrease On: HDL-C (Golden Syrian hamster; [7]): 15.9%; % Decrease On: LDL-C (Golden Syrian hamster; [7]): 8.9%; % Decrease On: Total Cholesterol (Golden Syrian hamster; [7]): 12.3%; % Decrease On: Triglyceride (Golden Syrian hamster; [7]): 4.8%; reducing LDL-C by (Golden Syrian hamster): 8.9-17.9%
CC[C@H](C)C(=O)O[C@H]1C[C@@H](C)C=C2C=C[C@H](C)[C@H](CC[C@@H](O)C[C@@H](O)CC(=O)[O-])[C@H]21.[Na+] [Compound I] | 25.2 | 41.4 | 28.6 | 30.3 | 32.2 | 29.2 | 33.7 | 40.7 | not effective in raising HDL-C | LDL-C reduced by (Golden Syrian hamster): 41.4-59.2%; effective at a dose as low as (Golden Syrian hamster; equivalent dose, antilipidemic activity): 5 mg; % Decrease On: HDL-C (Golden Syrian hamster; [8]): 5.6%; % Decrease On: LDL-C (Golden Syrian hamster; [8]): 14.7%; % Decrease On: Total Cholesterol (Golden Syrian hamster; [8]): 14.8%; % Decrease On: Triglyceride (Golden Syrian hamster; [8]): 4.5%; % Decrease On: HDL-C (Golden Syrian hamster; [6]): 12.4%; % Decrease On: LDL-C (Golden Syrian hamster; [6]): 23.7%; % Decrease On: Total Cholesterol (Golden Syrian hamster; [6]): 12.6%; % Decrease On: Triglyceride (Golden Syrian hamster; [6]): 6.8%; % Decrease On: HDL-C (Golden Syrian hamster; [7]): 20.7%; % Decrease On: LDL-C (Golden Syrian hamster; [7]): 22.4%; % Decrease On: Total Cholesterol (Golden Syrian hamster; [7]): 20.9%; % Decrease On: Triglyceride (Golden Syrian hamster; [7]): 23.6%; reducing LDL-C by (Golden Syrian hamster): 22.4-23.7%; effective doses found in this study [1]: 1 to 3 mg
O=C(O)c1cccnc1 [niacin, 3-pyridine carboxylic acid] | – | – | – | – | – | – | – | – | – | solubility in water (Water solubility): not soluble in water
CC(C)(Oc1ccc(CCNC(=O)c2ccc(Cl)cc2)cc1)C(=O)[O-].[Na+] [Compound III] | – | – | – | – | – | – | – | – | – | maximum tolerated dose (MTD) [2]: 10,000 mg; effective doses found in this study [1]: 30 to 40 mg
CC[C@H](C)C(=O)O[C@H]1C[C@@H](C)C=C2C=C[C@H](C)[C@H](CC[C@@H]3C[C@@H](O)CC(=O)O3)[C@H]21 [Mevacor, Lovastatin] | 20.4 | 22.4 | 21.8 | 19.4 | 26.7 | 54.4 | 34.4 | 36.6 | did not show any increase in HDL-C | solubility in water [3]: insoluble in water; solubility in water (Water solubility): not water-soluble
CC(C)c1nc(N(C)S(C)(=O)=O)nc(-c2ccc(F)cc2)c1/C=C/[C@@H](O)C[C@@H](O)CC(=O)O [Crestor] | – | – | – | – | – | – | – | – | – | HDL level (in words) [1, 9]: did not boost HDL; controlling cholesterol and LDL (in words) [1, 9]: less effective in controlling cholesterol and LDL

— patent US8258125B2, “HDL-boosting combination therapy complexes” (priority 2008, dated 2012)
